≈ marks a conversion by molar mass, not a printed value.
Experiment: Inhibition of PHA-induced human lymphocyte proliferation
Assay type: functional, cell-based

| Structure (SMILES) | IC50 |
| --- | --- |
| COc1c(O[C@@H]2O[C@@H](C)[C@H](O)[C@@H](OC(C)=O)[C@H]2O)cc2oc(-c3ccc(O)c(O)c3)c(O[C@@H]3O[C@@H](C)[C@H](O)[C@@H](O)[C@H]3O)c(=O)c2c1O | 10 µg/mL (≈ 15 µM) |
| COc1c(O[C@@H]2O[C@@H](C)[C@H](O)[C@@H](OC(C)=O)[C@H]2O)cc2oc(-c3ccc(O)c(O)c3)c(O[C@@H]3O[C@@H](C)[C@H](OC(C)=O)[C@@H](O)[C@H]3O)c(=O)c2c1O | 0.25 µg/mL (≈ 0.353 µM) |
| COc1c(O[C@@H]2O[C@@H](C)[C@H](O)[C@@H](O)[C@H]2OC(C)=O)cc2oc(-c3ccc(O)c(O)c3)c(O[C@@H]3O[C@@H](C)[C@H](OC(C)=O)[C@@H](O)[C@H]3O)c(=O)c2c1O [KALAMBROSIDE A] | 0.5 µg/mL (≈ 0.706 µM) |
| COc1c(O[C@@H]2O[C@@H](C)[C@H](O)[C@@H](O)[C@H]2OC(C)=O)cc2oc(-c3ccc(O)c(O)c3)c(O[C@@H]3O[C@@H](C)[C@H](O)[C@@H](O)[C@H]3O)c(=O)c2c1O [KALAMBROSIDE B] | 1 µg/mL (≈ 1.5 µM) |
| COc1c(O[C@@H]2O[C@@H](C)[C@H](O)[C@@H](O)[C@H]2O)cc2oc(-c3ccc(O)c(O)c3)c(O[C@@H]3O[C@@H](C)[C@H](OC(C)=O)[C@@H](O)[C@H]3O)c(=O)c2c1O [KALAMBROSIDE C] | > 10 µg/mL |

Reference: ChEMBL document CHEMBL1148083, “Patuletin acetylrhamnosides from Kalanchoe brasiliensis as inhibitors of human lymphocyte proliferative activity” (J Nat Prod, 1994)
